Results on 2 compounds are retold here after US20060018951A1, “pH-responsive film for intravaginal delivery of a beneficial agent” (SRI International, priority 2003, published 2006).

The subject of this test is sperm. Put plainly: Sperm motility assay. Format: cell-based, Sprague-Dawley rats. On the procedure: Male Sprague-Dawley-rats, between the ages of 16-22 weeks, were used for this study. Following anesthesia, both testes were removed and the epididymides were collected, rinsed in warm Dulbecco's phosphate buffered saline (37° C.), and placed in a petri dish containing approximately 10 mL warm MHF-10 (37° C.). The epididymides were minced with scissors to release sperm. Pipette sperm suspension into a 50 mL plastic centrifuge tube with a screw cap. Dilute sperm with additional MHF-10 (approximately 5-12 mL) to form a milky suspension. The initial percentage of motile sperm must be at least 70% for a valid assay, and is determined by inoculating 200 μL sperm suspension into 0.8 mL MHF-10 and counting motile versus nonmotile sperm. After the test article concentrations equilibrated in a 36° to 37° C. incubator for at least 30 minutes, 200 μL aliquots of the sperm suspension were added to the 0.8 mL test compound concentrations, two at a time, at 5 minute intervals, beginning with the highest concentration and proceeding to in order to the lowest concentration, then ending with vehicle and positive controls. The final volume was 1 mL per test compound concentration. Motility was assessed using a microscope. 50-μL aliquots of the test concentration, containing sperm, were added to the wells of preheated glass slides and covered with preheated glass coverslips. Pipette tips, slides, and coverslips were maintained at 36-37° C. on a warming plate. Motility was assessed at the appropriate exposure times, generally 20 and 40 min after addition of sperm to the test concentration. The degrees of motility of≧200 sperm per concentration per time point were evaluated as either not motile (0), incipiently motile (quivering/pulsing/wiggling) (1), slowly motile (2), or rapidly motile (3). Criteria for a Valid Assay. […] Percent motility in the tables below is calculated as (Prog. Motile)/Total (Prog.+Incip.+Non)×100.

[1] abbreviates: Experiment B, 1 min, film 49.1-50 mg, N9 amount not given, sperm count.
The mark [2] stands for this setting: Experiment B, 15 min, film 49.1-50 mg, N9 amount not given, sperm count.
[3] abbreviates: Experiment B, 30 min, film 49.1-50 mg, N9 amount not given, sperm count.
Where [4] appears, read: Experiment C, 1 min, Nos 5-8: films 49.9-51.0 mg, N9 amount not given, sperm count.
Setting [5] is: Experiment C, 15 min, Nos 5-8: films 49.9-51.0 mg, N9 amount not given, sperm count.
Where [6] appears, read: Experiment C, 30 min, Nos 5-8: films 49.9-51.0 mg, N9 amount not given, sperm count.
[7] abbreviates: Experiment D, 1 min, films 50-50.09 mg, N9 amount not given, sperm count.
The mark [8] stands for this setting: Experiment D, 15 min, films 50-50.09 mg, N9 amount not given, sperm count.
Setting [9] is: Experiment D, 30 min, films 50-50.09 mg, N9 amount not given, sperm count.
[10] abbreviates: first sperm study (T8), 1 min, films 4.3-19.8 mg, sperm count.
Where [11] appears, read: first sperm study (T8), 15 min, films 4.3-19.8 mg, sperm count.
The mark [12] stands for this setting: first sperm study (T8), 30 min, films 4.3-19.8 mg, sperm count.

In turn, `CC(O)C(=O)O` (centres unmarked) [Lactic Acid 4%, Lactic Acid] registered a Non-Mot (Experiment B, 1 min, 100 μl solution, sperm count) of 103 and a Non-Mot (Experiment B, 1 min, 200 μl solution, sperm count) of 200.
On to “nonylphenoxypolyethoxy ethanol [Formulation N-9]”, for which the “% Motility” value by setting is: (Experiment B, 1 min, film 49.1-50 mg, N9 amount not given) 0%; (Experiment B, 15 min, film 49.1-50 mg, N9 amount not given) 0%; (Experiment B, 30 min, film 49.1-50 mg, N9 amount not given) 0%; (Experiment C, 1 min, Nos 5-8: films 49.9-51.0 mg, N9 amount not given) 0%; (Experiment D, 1 min, films 50-50.09 mg, N9 amount not given) 0%; (Experiment D, 15 min, films 50-50.09 mg, N9 amount not given) 0%. Moreover, the “% Motility” value is, setting by setting: (Experiment D, 30 min, films 50-50.09 mg, N9 amount not given) 0%; (first sperm study (T8), 1 min, films 4.3-19.8 mg) 0%; (first sperm study (T8), 15 min, films 4.3-19.8 mg) 0%; (first sperm study (T8), 30 min, films 4.3-19.8 mg) 0%. Besides, the Incip.Mot reads like this: under setting [1], 0; under setting [2], 0; under setting [3], 0; under setting [4], 0; under setting [5], 0; under setting [6], 0. For the same compound, the Incip.Mot was determined as 0 under setting [7]; 0 under setting [8]; 0 under setting [9]; 0 under setting [10]; 0 under setting [11]; 0 under setting [12]. The Non-Mot under setting [1] is on record as 200; the Non-Mot under setting [2] worked out at 200; the Non-Mot under setting [3] worked out at 200; the Non-Mot under setting [4] is 200; the Non-Mot under setting [5] came out at 200; the Non-Mot under setting [6] is recorded as 200. In addition, the Non-Mot amounted to 200 under setting [7], 200 under setting [8] and 100 under setting [10]. In addition, the Prog.-Mot under setting [1] is 0. For the same compound, the Prog.Mot runs as follows: under setting [3], 0; under setting [7], 0; under setting [8], 0. Also, the Prog-Mot under setting [4] was 0. Moreover, the Total is reported as 0 (Experiment C, 15 min, Nos 5-8: films 49.9-51.0 mg, N9 amount not given) and 0 (Experiment C, 30 min, Nos 5-8: films 49.9-51.0 mg, N9 amount not given). The compound further showed a Mot under setting [5] of 0, a Mot under setting [6] of 0 and a Mot under setting [9] of 0. Besides, the Non-Motile under setting [11] was found to be 100 and the Non-Motile under setting [12] is given as 100. Besides, the Prog-Motile by setting is: under setting [11], 0; under setting [12], 0.
